# Results published in ChEMBL document CHEMBL5096162, “A review on ferulic acid and analogs based scaffolds for the management of Alzheimer's disease” (Eur J Med Chem, 2021).
# Tests used:
# Cholinesterase [1] = target: T1, Cholinesterase (Equus caballus, UniProt P81908); assay: Inhibition of equine serum BuChE preincubated for 5 mins followed by substrate addition and measured after 5 mins using S-butyrylthiocholine iodide as substrate by Ellman's method
# [2] = Antioxidant activity assessed as trolox equivalent of ABTS radical cation scavenging activity measured after 6 mins by UV spectrophotometeric analysis; assay type: functional
# Cholinesterase [3] = target: T2, Cholinesterase (Homo sapiens, UniProt P06276); assay: Inhibition of human BuchE preincubated for 6 mins followed by substrate addition and measured upto 3 mins using acetylthiocholine iodide as substrate by Ellman's method
# Acetylcholinesterase [4] = target: T3, Acetylcholinesterase (Homo sapiens, UniProt P22303); assay: Inhibition of human AchE preincubated for 6 mins followed by substrate addition and measured upto 3 mins using acetylthiocholine iodide as substrate by Ellman's method
# [5] = Antioxidant activity assessed as trolox equivalent of ORAC radical scavenging activity by ORAC-FL assay; assay type: functional
# [6] = Antioxidant activity assessed as DPPH radical scavenging activity incubated for 30 mins by UV-Vis spectrophotometric analysis; assay type: functional
# Cholinesterase [7] = target: T2, Cholinesterase; assay: Inhibition of human BuchE preincubated for 30 mins followed by substrate addition using butyrylthiocholine iodide as substrate by Ellman's method
# HT-22 = assay: Neuroprotection against iodoacetic acid-induced ATP depletion in mouse HT-22 cells assessed as increase in cell viability at 1 uM incubated for 2 hrs in medium with compound and iodoacetic acid followed by medium change with compound and measured after 24 hrs by MTT assay; assay type: functional; details: time 26 hrs
# [8] = Antioxidant activity assessed as DPPH radical scavenging activity at 1 mM incubated for 30 mins by microplate reader method; assay type: functional
# [9] = target: Amyloid-beta precursor protein (Homo sapiens) (UniProt P05067); assay: Inhibition of amyloid beta (1 to 42) (unknown origin) self aggregation assessed as reduction in fluorescence intensity at 80 uM incubated for 24 hrs by ThT-based fluorimetric assay
# Acetylcholinesterase [10] = target: T4, Acetylcholinesterase (Electrophorus electricus, UniProt O42275); assay: Inhibition of electric eel AChE preincubated for 15 mins followed by substrate addition using acetylthiocholine iodide as substrate by Ellman's method
# Cholinesterase [11] = target: T2, Cholinesterase
# Description: Inhibition of human BuchE preincubated for 6 mins followed by substrate addition using butyrylthiocholine iodide as substrate by DTNB reagent based Ellman method
# Cholinesterase [12] = target: T1, Cholinesterase; assay: Inhibition of equine serum BuchE preincubated for 6 mins followed by substrate addition using butyrylthiocholine iodide as substrate by DTNB reagent based Ellman method
# [13] = target: Amyloid-beta precursor protein (Homo sapiens) (UniProt P05067); assay: Inhibition of self-induced amyloid beta (1 to 42) (unknown origin) aggregation at 20 uM incubated for 46 to 48 hrs in dark by ThT-based fluorimetric assay; details: time 46-48 hrs
# [14] = target: Amyloid-beta precursor protein (Homo sapiens) (UniProt P05067); assay: Inhibition of amyloid beta (1 to 42) (unknown origin) self aggregation assessed as reduction in fluorescence intensity at 20 uM incubated for 24 hrs by ThT-based fluorimetric assay
# Acetylcholinesterase [15] = target: T4, Acetylcholinesterase; assay: Inhibition of electric eel AChE preincubated for 5 mins followed by substrate addition using acetylthiocholine iodide as substrate by Ellman's method
# [16] = Antioxidant activity of compound assessed as trolox equivalent of AAPH radical scavenging activity preincubated for 15 mins followed by AAPH addition and measured every 1 min for 60 mins by ORAC-FL assay; assay type: functional; details: time 75.0 min
# [17] = target: Amyloid-beta precursor protein (Homo sapiens) (UniProt P05067); assay: Inhibition of self-induced amyloid beta (1 to 40) (unknown origin) aggregation at 20 uM incubated for 48 hrs by ThT-based fluorimetric assay
# [18] = Antioxidant activity assessed as DPPH radical scavenging activity at 200 uM incubated for 2 hrs in dark by spectrophotometric analysis; assay type: functional
# [19] = Antioxidant activity assessed as DPPH radical scavenging activity measured for 30 mins in dark by UV-Vis spectrophotometric analysis; assay type: functional
# SH-SY5Y [20] = assay: Neuroprotective activity against amyloid beta-induced cytotoxicity in human SH-SY5Y cells assessed as cell viability at 10 to 80 uM by MTT assay; assay type: functional; details: dose 10-80 µM
# Cholinesterase [21] = target: T2, Cholinesterase; assay: Inhibition of human BuchE using butyrylthiocholine iodide as substrate by Ellman colorimetric assay
# Acetylcholinesterase [22] = target: T3, Acetylcholinesterase; assay: Inhibition of human AchE using acetylthiocholine iodide as substrate by Ellman colorimetric assay
# Beta-secretase 1 = Beta-secretase 1 (Homo sapiens, UniProt P56817); assay: Inhibition of human BACE-1 by FRET-based fluorometric assay
# [23] = Antioxidant activity assessed as GO radical cation scavenging activity measured for 30 mins by spectrophotometeric analysis; assay type: functional
# [24] = Antioxidant activity of compound assessed as trolox equivalent of AAPH radical scavenging activity preincubated for 15 mins followed by AAPH addition and measured for 120 mins by ORAC-FL assay; assay type: functional; details: time 135.0 min
# [25] = Metal chelating activity assessed as Fe2+ -ferrozoine complex formation incubated for 10 mins followed by ferrozine addition and further incubated for 10 mins by spectrophotometric assay; details: time 20.0 min
# [26] = Antioxidant activity assessed as DPPH radical scavenging activity measured for 45 mins by spectrophotometric analysis; assay type: functional
# [27] = Antioxidant activity assessed as ABTS radical cation scavenging activity measured every minute for 15 mins by spectrophotometeric analysis; assay type: functional
# HepG2 [28] = assay: Cytotoxicity against human HepG2 cells assessed reduction in cell viability at 1 uM by MTT assay; assay type: toxicity, cell-based; details: hepg2, 1 µM
# Acetylcholinesterase [29] = target: T3, Acetylcholinesterase; assay: Inhibition of human AchE preincubated for 20 mins followed by substrate addition using acetylthiocholine iodide as substrate by Ellman's method
# [30] = Antioxidant activity of compound assessed as trolox equivalent of AAPH radical scavenging activity preincubated for 15 mins followed by AAPH addition and measured for 60 mins by ORAC-FL assay; assay type: functional; details: time 75.0 min
# [31] = target: Amyloid-beta precursor protein (Homo sapiens) (UniProt P05067); assay: Inhibition of amyloid beta (1 to 42) (unknown origin) self aggregation assessed as reduction in fluorescence intensity at 50 uM incubated for 24 hrs by ThT-based fluorimetric assay
# HepG2 [32] = assay: Cytotoxicity against human HepG2 cells assessed reduction in cell viability at 1000 uM by MTT assay; assay type: toxicity, cell-based; details: hepg2, 1000 µM
# SH-SY5Y [33] = assay: Neuroprotective activity against amyloid beta (1 to 42)-induced cytotoxicity in human SH-SY5Y cells assessed as increase in cell viability at 10 uM incubated for 24 hrs by MTT assay; assay type: functional
# Cholinesterase [34] = target: T1, Cholinesterase; assay: Inhibition of equine BuChE by Ellman's method
# [35] = target: Cholinesterase (Equus caballus) (UniProt P81908); assay: Inhibition of equine BuChE at 1 uM by Ellman's method
# [36] = target: Acetylcholinesterase (Electrophorus electricus) (UniProt O42275); assay: Inhibition of electric eel AChE at 1 uM by Ellman's method
# Acetylcholinesterase (Electrophorus electricus), sequence (O42275 24-633 limits assumed): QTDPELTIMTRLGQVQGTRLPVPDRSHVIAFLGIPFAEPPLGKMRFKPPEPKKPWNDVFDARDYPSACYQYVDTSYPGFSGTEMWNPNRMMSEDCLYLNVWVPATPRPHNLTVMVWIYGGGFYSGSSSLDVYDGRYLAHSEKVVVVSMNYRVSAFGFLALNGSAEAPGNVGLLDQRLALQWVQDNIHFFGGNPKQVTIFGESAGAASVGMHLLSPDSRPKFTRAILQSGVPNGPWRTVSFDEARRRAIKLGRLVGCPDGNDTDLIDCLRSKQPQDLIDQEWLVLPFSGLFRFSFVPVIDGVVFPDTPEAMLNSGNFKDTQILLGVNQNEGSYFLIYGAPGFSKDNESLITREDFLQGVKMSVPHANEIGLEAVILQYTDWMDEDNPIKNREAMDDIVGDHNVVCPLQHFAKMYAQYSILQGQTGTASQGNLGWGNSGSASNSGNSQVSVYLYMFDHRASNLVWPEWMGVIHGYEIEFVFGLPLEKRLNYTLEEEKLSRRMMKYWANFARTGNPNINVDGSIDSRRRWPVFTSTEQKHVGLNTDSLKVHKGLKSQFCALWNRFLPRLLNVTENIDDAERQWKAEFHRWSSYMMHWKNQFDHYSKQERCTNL
# T3 sequence (P22303 whole entry): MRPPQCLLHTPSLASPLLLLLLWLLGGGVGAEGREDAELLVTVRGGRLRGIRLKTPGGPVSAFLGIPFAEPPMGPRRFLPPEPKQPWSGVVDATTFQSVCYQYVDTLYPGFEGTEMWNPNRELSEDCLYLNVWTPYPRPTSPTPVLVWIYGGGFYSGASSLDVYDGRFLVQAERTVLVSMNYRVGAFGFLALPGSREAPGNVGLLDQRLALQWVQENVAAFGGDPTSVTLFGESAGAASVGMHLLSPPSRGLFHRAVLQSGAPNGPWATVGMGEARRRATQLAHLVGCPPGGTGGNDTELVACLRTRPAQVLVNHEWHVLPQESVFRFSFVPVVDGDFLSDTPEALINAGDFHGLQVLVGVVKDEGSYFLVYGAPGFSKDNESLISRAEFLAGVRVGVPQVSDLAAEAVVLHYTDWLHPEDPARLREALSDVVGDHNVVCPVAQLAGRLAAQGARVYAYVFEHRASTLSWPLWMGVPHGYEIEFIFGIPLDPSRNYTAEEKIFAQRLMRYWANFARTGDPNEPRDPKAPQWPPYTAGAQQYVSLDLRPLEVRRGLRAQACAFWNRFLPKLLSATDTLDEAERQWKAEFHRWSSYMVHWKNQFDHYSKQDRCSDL
# T4 sequence (O42275 whole entry): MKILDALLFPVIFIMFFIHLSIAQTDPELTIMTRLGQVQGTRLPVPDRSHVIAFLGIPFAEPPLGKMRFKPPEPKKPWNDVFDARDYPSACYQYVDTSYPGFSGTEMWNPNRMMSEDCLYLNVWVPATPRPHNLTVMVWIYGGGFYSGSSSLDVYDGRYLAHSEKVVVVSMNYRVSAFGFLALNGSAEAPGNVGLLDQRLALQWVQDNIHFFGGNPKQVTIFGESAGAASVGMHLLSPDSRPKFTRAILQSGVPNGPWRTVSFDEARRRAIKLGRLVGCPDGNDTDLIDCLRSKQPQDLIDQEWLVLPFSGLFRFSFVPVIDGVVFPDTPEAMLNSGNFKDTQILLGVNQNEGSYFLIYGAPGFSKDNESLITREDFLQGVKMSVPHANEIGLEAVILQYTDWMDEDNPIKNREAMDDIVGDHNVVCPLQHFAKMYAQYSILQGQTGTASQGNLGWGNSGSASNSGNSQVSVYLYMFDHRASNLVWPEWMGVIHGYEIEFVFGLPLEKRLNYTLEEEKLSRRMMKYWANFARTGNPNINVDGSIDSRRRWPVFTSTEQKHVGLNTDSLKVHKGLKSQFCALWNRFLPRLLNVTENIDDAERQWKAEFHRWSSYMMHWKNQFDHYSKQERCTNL
# Amyloid-beta precursor protein (Homo sapiens), sequence (P05067 whole entry): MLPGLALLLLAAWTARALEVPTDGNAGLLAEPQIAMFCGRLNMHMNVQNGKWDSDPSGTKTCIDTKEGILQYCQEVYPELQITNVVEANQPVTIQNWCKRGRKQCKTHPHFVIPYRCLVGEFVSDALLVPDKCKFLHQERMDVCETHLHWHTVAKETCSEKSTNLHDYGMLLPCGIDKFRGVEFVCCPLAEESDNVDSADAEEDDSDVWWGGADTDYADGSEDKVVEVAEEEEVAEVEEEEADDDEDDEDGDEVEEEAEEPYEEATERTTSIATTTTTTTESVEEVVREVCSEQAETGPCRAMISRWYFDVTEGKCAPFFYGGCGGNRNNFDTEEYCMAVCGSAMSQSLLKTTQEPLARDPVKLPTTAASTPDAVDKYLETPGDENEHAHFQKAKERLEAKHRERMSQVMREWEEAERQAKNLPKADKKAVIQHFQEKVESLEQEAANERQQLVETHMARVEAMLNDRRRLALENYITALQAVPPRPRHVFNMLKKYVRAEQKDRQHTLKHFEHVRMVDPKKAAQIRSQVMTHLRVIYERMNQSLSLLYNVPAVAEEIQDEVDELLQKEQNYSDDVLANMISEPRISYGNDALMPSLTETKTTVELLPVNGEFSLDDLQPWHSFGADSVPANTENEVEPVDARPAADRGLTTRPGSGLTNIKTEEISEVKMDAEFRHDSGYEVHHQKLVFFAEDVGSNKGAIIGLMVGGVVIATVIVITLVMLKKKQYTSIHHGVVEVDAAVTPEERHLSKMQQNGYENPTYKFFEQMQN
# T1 sequence (P81908 whole entry): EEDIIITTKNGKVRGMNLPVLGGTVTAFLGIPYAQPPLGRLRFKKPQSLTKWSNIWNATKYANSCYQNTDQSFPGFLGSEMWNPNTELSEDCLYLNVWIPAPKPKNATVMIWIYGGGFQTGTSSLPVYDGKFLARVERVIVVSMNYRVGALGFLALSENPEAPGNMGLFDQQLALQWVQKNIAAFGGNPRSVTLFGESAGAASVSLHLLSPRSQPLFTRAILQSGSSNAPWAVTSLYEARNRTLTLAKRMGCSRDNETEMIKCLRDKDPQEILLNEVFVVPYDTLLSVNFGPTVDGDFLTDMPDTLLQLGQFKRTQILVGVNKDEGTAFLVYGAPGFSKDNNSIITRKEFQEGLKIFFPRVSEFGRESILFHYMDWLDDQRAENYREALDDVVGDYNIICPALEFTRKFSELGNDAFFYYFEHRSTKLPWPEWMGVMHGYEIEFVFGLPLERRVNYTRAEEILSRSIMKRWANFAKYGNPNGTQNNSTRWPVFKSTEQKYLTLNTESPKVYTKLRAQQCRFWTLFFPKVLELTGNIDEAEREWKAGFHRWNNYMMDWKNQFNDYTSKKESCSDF
# T2 sequence (P06276 whole entry): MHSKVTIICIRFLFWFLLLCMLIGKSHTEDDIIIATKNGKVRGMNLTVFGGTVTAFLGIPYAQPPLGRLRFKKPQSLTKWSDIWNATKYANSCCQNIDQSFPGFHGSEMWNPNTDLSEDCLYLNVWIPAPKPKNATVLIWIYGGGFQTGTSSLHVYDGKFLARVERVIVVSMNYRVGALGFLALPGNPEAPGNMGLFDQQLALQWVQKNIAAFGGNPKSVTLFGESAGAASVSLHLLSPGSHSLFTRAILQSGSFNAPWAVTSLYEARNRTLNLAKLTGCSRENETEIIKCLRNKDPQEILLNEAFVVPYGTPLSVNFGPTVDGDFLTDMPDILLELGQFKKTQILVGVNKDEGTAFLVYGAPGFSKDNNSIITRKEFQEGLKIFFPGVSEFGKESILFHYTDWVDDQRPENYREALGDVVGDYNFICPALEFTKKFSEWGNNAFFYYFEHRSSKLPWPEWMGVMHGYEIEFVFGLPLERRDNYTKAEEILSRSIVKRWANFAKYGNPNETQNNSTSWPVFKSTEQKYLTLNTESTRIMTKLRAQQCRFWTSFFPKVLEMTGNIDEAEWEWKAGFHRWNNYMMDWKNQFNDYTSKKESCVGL
# Beta-secretase 1, sequence (P56817 whole entry): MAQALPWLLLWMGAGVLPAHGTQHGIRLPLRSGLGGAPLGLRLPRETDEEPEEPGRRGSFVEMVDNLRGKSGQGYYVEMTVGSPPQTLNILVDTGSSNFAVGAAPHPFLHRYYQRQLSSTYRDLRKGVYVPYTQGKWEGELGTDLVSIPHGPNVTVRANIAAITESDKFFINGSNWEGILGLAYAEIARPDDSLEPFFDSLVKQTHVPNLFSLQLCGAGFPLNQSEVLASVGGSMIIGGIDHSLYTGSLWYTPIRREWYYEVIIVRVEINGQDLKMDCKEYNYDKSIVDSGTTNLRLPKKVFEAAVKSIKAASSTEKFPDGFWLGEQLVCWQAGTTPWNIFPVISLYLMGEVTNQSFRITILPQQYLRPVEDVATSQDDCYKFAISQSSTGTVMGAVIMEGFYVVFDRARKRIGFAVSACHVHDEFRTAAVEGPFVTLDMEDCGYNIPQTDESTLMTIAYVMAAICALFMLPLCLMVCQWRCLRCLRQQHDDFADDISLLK
# Cholinesterase (Equus caballus), sequence (P81908 whole entry): as the sequence (P81908 whole entry) above
compound,measurement,setting,value
O=C(/C=C/c1ccc(O)c(O)c1)NCCCCCC[P+](c1ccccc1)(c1ccccc1)c1ccccc1,IC50,Cholinesterase [1],150 nM
COc1cc(/C=C/C(=O)OCCCCCN(C)Cc2cccc(OC(=O)N(C)C)c2)ccc1O,Activity,[2],1.26 µM
same,IC50,Cholinesterase [3],0.59 nM
same,IC50,Acetylcholinesterase [4],19.7 nM
COc1cc(/C=C/C(=O)O[C@H]2C[C@H]3O[C@H](OC(=O)NCc4ccccc4)C[C@H]3O2)ccc1O,Activity,[5],0.635 equiv
COc1ccc(/C=C/C(=O)NCCC2CCN(Cc3ccccc3)CC2)cc1O,IC50,[6],764000 nM
O=C(CCCCC1CCSS1)O[C@H]1C[C@H]2O[C@H](OC(=O)NCc3ccccc3)C[C@H]2O1 (some centres undefined),IC50,Cholinesterase [7],150 nM
O=C(/C=C/c1ccccc1)Oc1ccc2c(c1)O[C@H](c1ccc(O)c(O)c1)[C@@H](O)C2=O,Activity,HT-22,40%
CCCCNC(=O)O[C@@H]1C[C@H]2O[C@@H](OC(=O)/C=C/c3ccc(O)c(OC)c3)C[C@H]2O1,IC50,Cholinesterase [7],430 nM
O=C(/C=C/CCc1ccc2c(c1)OCO2)NCCCNc1c2c(nc3ccccc13)CCCC2,Activity,[8],20.8%
same,inhibition,[9],72.2%
same,IC50,Acetylcholinesterase [10],130 nM
COc1ccc(/C=C/C(O)NCCCNc2c3c(nc4ccccc24)CCCC3)cc1OC (centres undefined),Activity,[8],16.8%
same,inhibition,[9],56.5%
same,IC50,Acetylcholinesterase [10],90 nM
COc1cc(/C=C/C(=O)NCCC2CCN(Cc3ccccc3)CC2)ccc1O,IC50,[6],34100 nM
same,Activity,[2],1.39 equiv
O=C1c2c(O)cc(O)cc2O[C@H](c2ccc(O)c(O)c2)[C@H]1O [(+)-TAXIFOLIN],Activity,HT-22,10%
COc1ccc(/C=C/C(=O)Nc2cc[n+](Cc3cccc(F)c3)cc2)cc1OC,IC50,Cholinesterase [11],4.8 nM
same,IC50,Cholinesterase [12],3.1 nM
same,inhibition,[13],63.4%
COC(=O)/C=C/c1ccc(OCCCCCN2CCN(CC(=O)Nc3c4c(nc5ccccc35)CCCC4)CC2)c(OC)c1,inhibition,[14],37.2%
COc1cc(/C=C/C(=O)NCCC2CCN(Cc3ccccc3)CC2)cc(OC)c1O,IC50,[6],24900 nM
same,Activity,[2],1.78 equiv
same,IC50,Acetylcholinesterase [15],390 nM
O=C(NCc1ccccc1)C(c1cnc2ccccc2c1)N(Cc1ccccc1)C(=O)/C=C/c1ccc(O)c(O)c1 (centres undefined),Activity,[16],5.48 equiv
same,inhibition,[17],66.4%
same,Activity,[18],89.1%
CCNC(=O)O[C@@H]1C[C@H]2O[C@@H](OC(=O)CCCCC3CCSS3)C[C@H]2O1 (some centres undefined),Activity,[5],0.163 equiv
O=C(/C=C/c1ccc(O)c(O)c1)Nc1cccc2ccccc12,IC50,[19],20800 nM
C=CCc1ccc(OC(=O)/C=C/c2ccc(O)c(O)c2)c(OC)c1,IC50,[19],11200 nM
COc1cc(/C=C/c2nnc(-c3ccc(C(F)(F)F)cc3)o2)ccc1O,Activity,SH-SY5Y [20],70.45%
same,IC50,Cholinesterase [21],255 nM
same,IC50,Acetylcholinesterase [22],68 nM
same,IC50,Beta-secretase 1,255 nM
COc1cc(/C=C/C(=O)O)ccc1O [FERULATE],IC50,[23],37500 nM
same,Activity,[24],0.34
same,Activity,[25],8.9%
same,IC50,[26],64600 nM
same,IC50,[27],16800 nM
CCCCNC(=O)O[C@@H]1C[C@H]2O[C@@H](OC(=O)CCCCC3CCSS3)C[C@H]2O1 (some centres undefined),IC50,Cholinesterase [7],170 nM
O=C(NCc1ccccc1)C(c1ccnc2ccccc12)N(Cc1ccccc1)C(=O)/C=C/c1ccc(O)c(O)c1 (centres undefined),Activity,[16],4.98 equiv
same,Activity,[18],> 77%
COCCCCCCCCCCCCCCCCCCOC(=O)/C=C/c1ccc(O)c(OC)c1,Activity,[25],77.9%
O=C(/C=C/c1cc(O)c(O)c(O)c1)NCCCCCC[P+](c1ccccc1)(c1ccccc1)c1ccccc1,IC50,Cholinesterase [1],110 nM
COc1ccc2nc3c(c(NCCCCCCCCN(CC(=O)Nc4ccc5ccccc5c4)C(=O)/C=C/c4ccc(O)c(OC)c4)c2c1)CCCC3,Activity,HepG2 [28],98.8%
same,IC50,Acetylcholinesterase [29],22.2 nM
same,Activity,[30],4.29 equiv
same,inhibition,[31],65.6%
same,Activity,HepG2 [32],59.4%
same,Activity,SH-SY5Y [33],95.1%
COc1ccc2[nH]cc(CCNC(=O)CN(CCC3CCN(Cc4ccccc4)CC3)C(=O)/C=C/c3ccc(O)c(OC)c3)c2c1,Activity,[5],8.71 equiv
same,IC50,Cholinesterase [34],10.4 nM
COc1cc(/C=C/c2nnc(-c3ccc(OC(F)(F)F)cc3)o2)ccc1O,Activity,SH-SY5Y [20],65.11%
same,IC50,Cholinesterase [21],210 nM
same,IC50,Acetylcholinesterase [22],92 nM
same,IC50,Beta-secretase 1,210 nM
COc1cc(/C=C/C(=O)O)ccc1S,IC50,[23],4250 nM
same,Activity,[24],0.34
same,IC50,[26],47800 nM
same,IC50,[27],19900 nM
COc1cc(/C=C/C(=O)N(CCC2CCN(Cc3ccccc3)CC2)CC(=O)Nc2c(C)cccc2Cl)ccc1O,inhibition,[35],57.3%
same,Activity,[5],6.9 equiv
same,inhibition,[36],24.8%
